Experimental data as given in article PMC5556071, “ATR inhibition facilitates targeting of leukemia dependence on convergent nucleotide biosynthetic pathways” (Nature Communications, 2017).
Where “and” joins values, the source holds several entries; their conditions need not be identical. Identical values can stand only once.

Test system: CEM cells
Test: Non-targeted LC-MS metabolite profiling: percent [13C6]glucose labeling and relative metabolite levels
Type: cell-based, human
Conditions: CEM cells, 12 h following release from G1 arrest, replicates #1-#6
Source text: To further investigate the functions of dCK and ATR at the G1/S transition in CEM cells, a non-targeted liquid chromatography mass spectrometry (LC-MS) assay was used to determine the utilization of labeled [^13C6]glucose and [^13C9,^15N3]deoxycytidine, the main substrates for de novo and salvage nucleotide biosynthesis, respectively. Of the 166 metabolites identified in CEM cells treated with VE-822 and/or dCKi, 105 metabolites found in all four treatment groups contained glucose-derived ^13C atoms. […] These metabolites included intermediates such as rUTP, rCTP and rCDP in the de novo dCTP biosynthesis (Fig. 1d). […] However, several deoxyribonucleotides, including dCTP, were below the limit of detection of the non-targeted LC-MS approach, raising the concern that the sensitivity of this assay is not sufficient to measure the contribution of the salvage pathway or the ratio of de novo and salvage biosynthesis to these pools. To address this problem, a newly developed targeted MS assay was developed (Fig. 1e and Supplementary Fig. 3). In this assay, samples containing either extracted dNTPs or hydrolyzed DNA from labeled cells are separated by LC for detection by a triple quadrupole mass spectrometer using multiple reaction monitoring (LC-MS/MS-MRM). The first (Q1) and third (Q3) quadrupoles function as mass filters, while the second (Q2) quadrupole serves as a collision chamber (Fig. 1e). For instance, to profile the biosynthetic composition of deoxycytidine (dC) derived from hydrolyzed DNA or dCTP, an intact, protonated dC ion is selected in Q1, followed by fragmentation of the glycosidic bond, which releases protonated cytosine in Q2, that is filtered in Q3 and detected to generate an ion chromatogram. The peak areas for the ion chromatograms of salvage [^13C9,^15N3]dC (red trace), de novo [^13C5]dC (black trace, from [^13C6]glucose) and unlabeled dC (gray trace) (Fig. 1e) are used to determine the relative contributions of the de novo and salvage routes both to dCTP pools and to DNA-incorporated dCTP.
Cells were transferred into RPMI-1640 without glucose and supplemented with 10% dialyzed FBS (Gibco) containing the following labeled substrates: precursors for de novo [U-^13C6]glucose (Sigma-Aldrich, 389374) at 11 mM; precursors for purine salvage [U-^13C10,^15N5]dA (Cambridge Isotopes, CIL 3896), [^15N5]dA (Cambridge Isotopes, NLM-3895) and [^15N5]dG (Cambridge Isotopes, NLM-3899) at 5 µM or as indicated; and precursors for pyrimidine salvage: [U-^13C9,^15N3]dC (Silantes, 124603602) and [U-^13C10,^15N2]dT (Cambridge Isotopes, CNLM-3902) at 5 µM and [^15N2]orotate (Cambridge Isotopes, NLM-1048) at indicated concentrations. The cells were incubated for 12 h or as indicated before sample collection and processing. […]
Non-targeted LC-MS metabolic assays. 1 x 10^6 cells were washed with ice-cold 150 mM ammonium acetate twice before adding 1 mL of ice-cold 80% methanol with 10 nM norvaline as an internal standard. After vigorous vortexing, samples were centrifuged at maximum speed, the aqueous layer was transferred to a glass vial and the metabolites were dried under vacuum. Metabolites were resuspended in 50 μL 70% acetonitrile (ACN) and 5 μL of this solution used for the mass spectrometer-based analysis. The analysis was performed on a Q Exactive (Thermo Scientific) in polarity-switching mode with positive voltage 4.0 kV and negative voltage 4.0 kV. The mass spectrometer was coupled to an UltiMate 3000RSLC (Thermo Scientific) UHPLC system. Mobile phase A was 5 mM ammonium acetate (NH4AcO), pH 9.9, B was acetonitrile and the separation achieved on a Luna […] NH2 100 A column (150 × 2.0 mm, Phenomenex). The flow was 200 μL/min, and the gradient ran from 15% A to 95% A in 18 min, followed by an isocratic step for 9 min and re-equilibration for 7 min. Metabolites were detected and quantified as area under the curve based on retention time and accurate mass (≤ 3 p.p.m.) using the TraceFinder 3.1 (Thermo Scientific). Relative amounts of […]

[1] = metabolite CDP (KEGG C00112), listed as V
[2] = metabolite CDP-EtA (KEGG C00570), listed as V
[3] = metabolite CMP (KEGG C00055), listed as V
[4] = metabolite CTP (KEGG C00063), listed as V
[5] = metabolite Choline (KEGG C00114), listed as V
[6] = metabolite Cinnamic acid (KEGG C00423), listed as V
[7] = metabolite Cit (KEGG C00158), listed as V
[8] = metabolite Citraconic acid (KEGG C02226), listed as V
[9] = metabolite Creatine (KEGG C00300), listed as V
[10] = metabolite Creatinine (KEGG C00791), listed as V
[11] = metabolite Cytosine (KEGG C00380), listed as V
[12] = metabolite DMG (KEGG C01026), listed as V
[13] = metabolite Dihydroorotate (KEGG C00337), listed as V
[14] = metabolite F16BP (KEGG C00354), listed as V
[15] = metabolite Folate (KEGG C00504), listed as V
[16] = metabolite Fru (KEGG C00095), listed as V
[17] = metabolite Fum (KEGG C00122), listed as V
[18] = metabolite G (KEGG C00387), listed as V
[19] = metabolite dG (KEGG C00330), listed as V
[20] = metabolite dTMP (KEGG C00364), listed as V

CNCc1ccc(-c2cc(-c3nc(-c4ccc(S(=O)(=O)C(C)C)cc4)cnc3N)on2)cc1 [VE-822]
Glucose labeling of CDP [1]: 46.58% and 27.42% and 42.30% and 38.55% and 26.25% and 39.84%
Relative level of CDP [1]: 3.4 and 1.2 and 1.9 and 1.6 and 0.8 and 0.754
Glucose labeling of CDP-EtA [2]: 25.10% and 38.04% and 37.00% and 40.76% and 32.59% and 33.65%
Relative level of CDP-EtA [2]: 0.7 (3×) and 0.9 and 0.744 and 0.633
Glucose labeling of CMP [3]: 38.36% and 31.49% and 41.31% and 20.57% and 40.83% and 49.90%
Relative level of CMP [3]: 3.0 and 2.7 and 2.4 and 1.7 and 0.9 and 0.7
Glucose labeling of CTP [4]: 40.85% and 37.06% and 39.44% and 47.60% and 38.66% and 34.33%
Relative level of CTP [4]: 1.6 and 0.5 and 0.8 and 0.848 and 0.468 and 0.448
Glucose labeling of Choline [5]: 0.00248% (3×) and 0.00264% and 0.0024% and 0.00242%
Relative level of Choline [5]: 1.2 and 1.3 and 1.4 and 0.849 and 0.8 (2×)
Glucose labeling of Cinnamic acid [6]: 0.00% (5×) and 1.11e-14%
Relative level of Cinnamic acid [6]: 1.7 and 1.5 and 1.6 and 1.0 (2×) and 0.9
Glucose labeling of Cit [7]: 50.64% and 47.53% and 49.55% and 44.89% and 45.53% and 45.28%
Relative level of Cit [7]: 0.9 and 0.6 and 0.7 and 0.47 and 0.449 and 0.454
Glucose labeling of Citraconic acid [8]: 0.00% (5×) and -2.22e-14%
Relative level of Citraconic acid [8]: 1.1 (3×) and 1.6 and 0.8 and 1.0
Glucose labeling of Citrulline (metabolite Citrulline (KEGG C00327)): 0.18%
Relative level of Citrulline (metabolite Citrulline (KEGG C00327), listed as V): 0.5 and 1.2 (2×) and 2.5 and 0.3 and 0.335
Glucose labeling of Creatine [9]: 0.000881% and 0.000842% and 0.000971% and 0.000748% and 0.000833% and 0.000956%
Relative level of Creatine [9]: 1.0 and 1.1 (2×) and 0.8 and 0.9 and 0.852
Glucose labeling of Creatinine [10]: 0.000588% and 0.000811% and 0.000818% and 0.000809% and 0.000725% and 0.000748%
Relative level of Creatinine [10]: 1.0 (3×) and 1.1 and 1.2 and 0.848
Glucose labeling of Cystathionine (metabolite Cystathionine (KEGG C02291)): 0.26%
Relative level of Cystathionine (metabolite Cystathionine (KEGG C02291), listed as V): 1.0 and 0.182 and 1.1 and 0.2 and 0.4 and 0.251
Glucose labeling of Cytosine [11]: 0.00381% and 0.000394% and 0.000743% and 0.000956% and 0.000512% and 0.0321%
Relative level of Cytosine [11]: 1.4 and 1.7 and 3.0 and 5.5 and 1.6 and 0.9
Glucose labeling of DHAP (metabolite DHAP (KEGG C00111)): 100.00%
Relative level of DHAP (metabolite DHAP (KEGG C00111), listed as V): 5.8 and 0.3 and 1.3 and 1.2 and 0.2
Glucose labeling of DMG [12]: 0.0737% and 0.02% and 0.04% and 0.06% and 0.0145% and 0.05%
Relative level of DMG [12]: 0.7 and 1.3 and 1.0 (2×) and 0.527 and 0.9
Glucose labeling of Dihydroorotate [13]: 0.55% and 0.92% and 0.10% and 0.96% and 0.80% and 0.09%
Relative level of Dihydroorotate [13]: 0.9 and 0.7 and 0.8 and 0.754 and 0.5 and 0.468
Glucose labeling of F16BP [14]: 97.93% and 88.56% and 94.79% and 95.15% and 79.77% and 75.67%
Relative level of F16BP [14]: 9.1 and 1.1 and 2.4 and 2.6 and 0.552 and 0.456
Glucose labeling of Folate [15]: 0.00% (5×) and 100.00%
Relative level of Folate [15]: 0.546 and 1.0 and 0.5 and 0.4 and 0.9
Glucose labeling of Fru [16]: 58.79% and 68.43% and 78.80% and 67.26% and 65.64% and 42.97%
Relative level of Fru [16]: 3.7 and 3.5 and 2.9 and 1.6 and 1.8 and 2.4
Glucose labeling of Fum [17]: 15.89% and 14.12% and 10.85% and 10.48% and 12.71% and 7.86%
Relative level of Fum [17]: 1.3 and 0.8 (2×) and 1.1 and 0.565 and 0.5
Glucose labeling of G [18]: 0.55% (4×) and 100.00% (2×)
Relative level of G [18]: 1.1 and 0.852 and 0.9 and 1.6
Glucose labeling of dATP (metabolite dATP (KEGG C00131)): 100.00%
Relative level of dATP (metabolite dATP (KEGG C00131)): 0.6
Glucose labeling of dCTP (metabolite dCTP (KEGG C00458)): 100.00%
Relative level of dCTP (metabolite dCTP (KEGG C00458)): 0.0
Glucose labeling of dG [19]: 0.38% and 0.48% and 0.49% and 0.0145% and 0.37% and 0.09%
Relative level of dG [19]: 1.7 (2×) and 1.1 (2×) and 6.1 and 1.0
Relative level of dGDP (metabolite dGDP (KEGG C00361)): 61.2
Glucose labeling of dGDP (metabolite dGDP (KEGG C00361), listed as V): 100.00% (5×) and 0.38%
Glucose labeling of dTMP [20]: 0.55% and 100.00% (4×) and 82.28%
Relative level of dTMP [20]: 0.7 and 6.1 and 3.9 and 1.9 and 0.6 and 0.453
Glucose labeling of dTTP (metabolite dTTP (KEGG C00459)): 100.00%
Relative level of dTTP (metabolite dTTP (KEGG C00459), listed as V): 0.47 and 0.4
Glucose labeling, Leu/Ile: 0.00%
Glucose labeling, NAD+: 0.00%
Glucose labeling, P-Creatine: 0.0737%
Glucose labeling, P-EtA: 0.0123%
Glucose labeling, PEP: 100.00%
Glucose labeling, Phe: 0.00%
Glucose labeling, Pipecolate: 0.00%
Glucose labeling, Pyr: 100.00%
Glucose labeling, Sarc (C00213): 0.0369%
Glucose labeling, Thr (C00188): 0.00%
Glucose labeling, Trigonelline (C01004): 0.00%
